In patent publication US20230210797A1, “PREVENTING AND TREATING HYPOGLYCEMIA” (DIAMYD MEDICAL AB, priority 2019, published 2023):

Tests used:
epinephrine = assay: Hypoglycemic clamp: plasma epinephrine levels; format: in vivo, human; details: for epinephrine levels, Change from baseline, Mean (SD) / epinephrine levels, Change from baseline, Median (Min, Max) / epinephrine levels, Observed value, Mean (SD) / epinephrine levels, Observed value, Median (Min, Max): C-peptide undetectable
Procedure: In order to evaluate the counterregulatory hormone response to hypoglycemia, a hypoglycemic clamp will be performed. The Hypoglycemic Clamp must be performed according to the instructions in the Operations Manual. (Appendix 3)
The patient should: • Come to the study site following an overnight fast (>10 hours), i.e. the patient may not eat but is permitted to drink water • Not have taken the Remygen and, if applicable, Alprazolam dose in the morning • Not take short acting/direct acting insulin within 6 hours before the investigation. • The patient is allowed to take base-insulin day/night before, but not in the morning before the investigation.
Patients with CSII (insulin pump) must continue with their basal dose insulin, but not add bolus dose during the last 6 hours before the investigation.
If a patient has a blood sugar level <4 mmol/L in the morning of the scheduled visit, the patient is allowed to take dextrose tablets and then come to the study site. The patient is allowed to perform the investigation if the blood sugar level is >4 mmol/L.
In the dose-escalation part of the study, the patient will take study drug 30 min prior to start of the hypoglycemic clamp. In the main study, the study drug will instead be taken after finalization of the hypoglycemic clamp. Baseline blood samples will be obtained for glucose, glucagon, epinephrine, norepinephrine, growth hormone and cortisol. The clamp will then be initiated by an intravenous insulin infusion at a rate of 2 mU×kg^−1×min^−1. Glucose 100 mg/ml will then be administered in variable infusion rates to clamp the blood glucose concentration at 5.5 mmol/land then at 2.5 mmol/land kept stable for 30 min. Blood glucose will be evaluated repeatedly in order to find the optimal glucose infusion rate. Blood sampling to determined levels of counterregulatory hormones as described above will be performed at each of these target levels when a stable glucose concentration has been reached. The insulin infusion will thereafter be terminated and the patient is allowed to eat and will be observed until normoglycemia is achieved. If necessary, additional glucose administration will be given to allow blood glucose concentrations to normalize.
Plasma glucose was first lowered to normoglycemic levels (5.5 mmol/L) and hormone levels monitored, and then to hypoglycemic levels (2.5 mmol/L) and hormone levels monitored. Difference was calculated as a measurement of the response to hypoglycemia.

[1] = Time spent below, within and above normal blood glucose range (4-10 mmol/L), FreeStyle Libre Pro FGM; format: in vivo, human; details: for Time above range, Mean / Time above range, Median / Time below range, Mean / Time below range, Median / Time within range, Mean / Time within range, Median: normal blood glucose range 4-10 mmol/L, n=6
Text: The FreeStyle Libre Pro FGM System is a professional glucose monitoring device indicated for detecting trends and tracking patterns and glucose level excursions above or below the desired range, facilitating therapy adjustments in persons with diabetes. Readings from the FreeStyle Libre Pro FGM System are not made available directly to patients in real time. The FreeStyle Libre Pro FGM System aids in the detection of episodes of hyperglycemia and hypoglycemia, facilitating therapy adjustments.
Patients will receive the Freestyle Libre Pro at the site at Visit 1 and Visit 2 in the Safety and Dose Escalation study and will be instructed how to return the FreeStyle Libre to the site after each of the testing period. For the main study patients will receive the Freestyle Libre Pro at the site during Visit 1 (all Treatment arms), Visit 7 (Treatment arm 1), Visit 8 (Treatment arm 2 and 3) and will be instructed how to return the FreeStyle Libre to the site after each of the testing period. However, for Visit 9 (Treatment arm 1) and Visit 10 (Treatment arm 2 and 3) patients will be instructed to come to the site 14 days before the visit to receive the Freestyle Libre and have it activated. The patients will then return the Freestyle Libre at Visit 9 or Visit 10, depending on treatment arm. The timing of the distribution of the glucose monitoring system and assessments is described in Above.
Blood glucose levels for all six patients in the dose escalation part of the study was measured during certain time intervals to determine time spent in, above, and below normal blood glucose range (4-10 mmol/L).

[2] = Visit 5, 200 mg GABA per day, Event 2.5 mmol/L
[3] = Visit 5, 200 mg GABA per day, Event 5.5 mmol/L
[4] = Visit 5, 200 mg GABA per day, Event Baseline
[5] = Visit 5, 200 mg GABA per day, Event Diff 2.5-5.5 mmol/L
[6] = Visit 7, 600 mg GABA per day, Event 2.5 mmol/L
[7] = Visit 7, 600 mg GABA per day, Event 5.5 mmol/L
[8] = Visit 7, 600 mg GABA per day, Event Baseline
[9] = Visit 7, 600 mg GABA per day, Event Diff 2.5-5.5 mmol/L
[10] = Visit 9, 1200 mg GABA per day, Event 2.5 mmol/L
[11] = Visit 9, 1200 mg GABA per day, Event 5.5 mmol/L
[12] = Visit 9, 1200 mg GABA per day, Event Baseline
[13] = Visit 9, 1200 mg GABA per day, Event Diff 2.5-5.5 mmol/L
[14] = normal range 4-10 mmol/L, all six patients of dose escalation part

Compound: NCCCC(=O)O [GABA, Gamma-amino butyric acid]
- epinephrine levels, Change from baseline, Mean (SD) (epinephrine; [2]): 0.800 (0.720) nmol/L
- epinephrine levels, Change from baseline, Median (Min, Max) (epinephrine; [2]): 0.400 (0.30, 2.00) nmol/L
- epinephrine levels, Observed value, Mean (SD) (epinephrine; [2]): 1.640 (1.014) nmol/L
- epinephrine levels, Observed value, Median (Min, Max) (epinephrine; [2]): 1.200 (0.50, 2.90) nmol/L
- epinephrine levels, Change from baseline, Mean (SD) (epinephrine; [3]): 0.000 (0.000) nmol/L
- epinephrine levels, Change from baseline, Median (Min, Max) (epinephrine; [3]): 0.000 (0.00, 0.00) nmol/L
- epinephrine levels, Observed value, Mean (SD) (epinephrine; [3]): 0.150 (0.000) nmol/L
- epinephrine levels, Observed value, Median (Min, Max) (epinephrine; [3]): 0.150 (0.15, 0.15) nmol/L
- epinephrine levels, Change from baseline, Mean (SD) (epinephrine; [4]): 0.000 (0.000) nmol/L
- epinephrine levels, Change from baseline, Median (Min, Max) (epinephrine; [4]): 0.000 (0.00, 0.00) nmol/L
- epinephrine levels, Observed value, Mean (SD) (epinephrine; [4]): 0.150 (0.000) nmol/L
- epinephrine levels, Observed value, Median (Min, Max) (epinephrine; [4]): 0.150 (0.15, 0.15) nmol/L
- epinephrine levels, Change from baseline, Mean (SD) (epinephrine; [5]): 0.800 (0.720) nmol/L
- epinephrine levels, Change from baseline, Median (Min, Max) (epinephrine; [5]): 0.400 (0.30, 2.00) nmol/L
- epinephrine levels, Observed value, Mean (SD) (epinephrine; [5]): 1.490 (1.014) nmol/L
- epinephrine levels, Observed value, Median (Min, Max) (epinephrine; [5]): 1.050 (0.35, 2.75) nmol/L
- epinephrine levels, Change from baseline, Mean (SD) (epinephrine; [6]): 0.560 (0.585) nmol/L
- epinephrine levels, Change from baseline, Median (Min, Max) (epinephrine; [6]): 0.800 (−0.40, 1.10) nmol/L
- epinephrine levels, Observed value, Mean (SD) (epinephrine; [6]): 1.400 (0.579) nmol/L
- epinephrine levels, Observed value, Median (Min, Max) (epinephrine; [6]): 1.700 (0.60, 2.00) nmol/L
- epinephrine levels, Change from baseline, Median (Min, Max) (epinephrine; [7]): 0.000 (0.00, 0.25) nmol/L
- epinephrine levels, Observed value, Median (Min, Max) (epinephrine; [7]): 0.150 (0.15, 0.40) nmol/L
- epinephrine levels, Change from baseline, Mean (SD) (epinephrine; [8]): 0.000 (0.000) nmol/L
- epinephrine levels, Change from baseline, Median (Min, Max) (epinephrine; [8]): 0.000 (0.00, 0.00) nmol/L
- epinephrine levels, Observed value, Mean (SD) (epinephrine; [8]): 0.150 (0.000) nmol/L
- epinephrine levels, Observed value, Median (Min, Max) (epinephrine; [8]): 0.150 (0.15, 0.15) nmol/L
- epinephrine levels, Change from baseline, Mean (SD) (epinephrine; [9]): 0.510 (0.564) nmol/L
- epinephrine levels, Change from baseline, Median (Min, Max) (epinephrine; [9]): 0.600 (−0.40, 1.10) nmol/L
- epinephrine levels, Observed value, Mean (SD) (epinephrine; [9]): 1.200 (0.630) nmol/L
- epinephrine levels, Change from baseline, Mean (SD) (epinephrine; [10]): 0.670 (0.709) nmol/L
- epinephrine levels, Change from baseline, Median (Min, Max) (epinephrine; [10]): 0.500 (0.00, 1.70) nmol/L
- epinephrine levels, Observed value, Mean (SD) (epinephrine; [10]): 1.510 (1.070) nmol/L
- epinephrine levels, Observed value, Median (Min, Max) (epinephrine; [10]): 1.200 (0.15, 2.60) nmol/L
- epinephrine levels, Change from baseline, Mean (SD) (epinephrine; [11]): 0.000 (0.000) nmol/L
- epinephrine levels, Change from baseline, Median (Min, Max) (epinephrine; [11]): 0.000 (0.00, 0.00) nmol/L
- epinephrine levels, Observed value, Mean (SD) (epinephrine; [11]): 0.150 (0.000) nmol/L
- epinephrine levels, Observed value, Median (Min, Max) (epinephrine; [11]): 0.150 (0.15, 0.15) nmol/L
- epinephrine levels, Change from baseline, Mean (SD) (epinephrine; [12]): 0.000 (0.000) nmol/L
- epinephrine levels, Change from baseline, Median (Min, Max) (epinephrine; [12]): 0.000 (0.00, 0.00) nmol/L
- epinephrine levels, Observed value, Mean (SD) (epinephrine; [12]): 0.150 (0.000) nmol/L
- epinephrine levels, Observed value, Median (Min, Max) (epinephrine; [12]): 0.150 (0.15, 0.15) nmol/L
- epinephrine levels, Change from baseline, Mean (SD) (epinephrine; [13]): 0.670 (0.709) nmol/L
- epinephrine levels, Change from baseline, Median (Min, Max) (epinephrine; [13]): 0.500 (0.00, 1.70) nmol/L
- epinephrine levels, Observed value, Median (Min, Max) (epinephrine; [13]): 1.050 (0.00, 2.45) nmol/L
- Counter regulatory response of Epinephrine, effect of GABA treatment (epinephrine; change in levels when clamping to 2.5 mmol/L from 5.5 mmol/L): increased
- Time above range, Mean ([1]; Day 3 to 4): 28.7%
- Time above range, Median ([1]; Day 3 to 4): 28.8%
- Time below range, Mean ([1]; Day 3 to 4): 14.8%
- Time below range, Median ([1]; Day 3 to 4): 14.3%
- Time within range, Mean ([1]; Day 3 to 4): 56.6%
- Time within range, Median ([1]; Day 3 to 4): 62.0%
- Time above range, Mean ([1]; Day 6 to 7): 37.7%
- Time above range, Median ([1]; Day 6 to 7): 36.5%
- Time below range, Mean ([1]; Day 6 to 7): 4.8%
- Time below range, Median ([1]; Day 6 to 7): 4.0%
- Time within range, Mean ([1]; Day 6 to 7): 57.6%
- Time within range, Median ([1]; Day 6 to 7): 59.5%
- Time above range, Mean ([1]; Day 9): 39.5%
- Time above range, Median ([1]; Day 9): 50.0%
- Time below range, Mean ([1]; Day 9): 5.5%
- Time below range, Median ([1]; Day 9): 2.5%
- Time within range, Mean ([1]; Day 9): 55.0%
- Time within range, Median ([1]; Day 9): 47.0%
- Time above normal blood glucose range, effect of GABA treatment [1, 14]: decreased
- Time below normal blood glucose range, effect of GABA treatment [1, 14]: decreased
- Time in normal blood glucose range, effect of GABA treatment [1, 14]: increased
